# Source: ChEMBL document CHEMBL1201862, “PubChem BioAssay data set” (2004)
# Active and inactive are the calls of the source.
# Columns and labels:
# [1] = target: T1, Corticotropin-releasing factor receptor 2/Corticotropin-releasing factor-binding protein (Homo sapiens, UniProt P24387+Q13324); assay: activators of CRF receptor 2 with binding protein – uHTS hits, confirmation (AID 602473); type: functional; conditions: read-out: EC50_Mean
# T1 sequence (Q13324 whole entry): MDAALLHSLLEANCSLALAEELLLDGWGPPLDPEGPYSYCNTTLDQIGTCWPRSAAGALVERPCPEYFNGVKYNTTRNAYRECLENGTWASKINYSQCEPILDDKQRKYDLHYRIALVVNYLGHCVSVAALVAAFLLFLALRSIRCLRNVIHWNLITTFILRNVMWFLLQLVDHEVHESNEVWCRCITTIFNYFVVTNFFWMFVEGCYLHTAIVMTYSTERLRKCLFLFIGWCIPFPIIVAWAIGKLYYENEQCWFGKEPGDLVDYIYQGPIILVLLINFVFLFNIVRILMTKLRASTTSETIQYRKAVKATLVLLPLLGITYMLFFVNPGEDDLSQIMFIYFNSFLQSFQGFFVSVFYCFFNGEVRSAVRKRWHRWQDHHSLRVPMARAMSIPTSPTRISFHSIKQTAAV
# T1 sequence (P24387 whole entry): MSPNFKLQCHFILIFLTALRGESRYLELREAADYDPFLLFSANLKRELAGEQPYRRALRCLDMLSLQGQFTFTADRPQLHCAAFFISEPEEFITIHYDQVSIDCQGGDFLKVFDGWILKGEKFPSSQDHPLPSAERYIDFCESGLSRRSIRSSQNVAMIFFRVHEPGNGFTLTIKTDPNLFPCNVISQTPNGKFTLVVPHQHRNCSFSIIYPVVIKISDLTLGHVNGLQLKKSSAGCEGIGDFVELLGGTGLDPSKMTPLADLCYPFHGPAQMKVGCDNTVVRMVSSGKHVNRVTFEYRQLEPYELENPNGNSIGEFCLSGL
# [2] = target: T1, Corticotropin-releasing factor receptor 2/Corticotropin-releasing factor-binding protein; assay: Dose Response confirmation of uHTS hits for small molecule antagonists of the CRF-binding protein and CRF-R2 receptor complex.; type: functional; conditions: read-out: IC50_Mean
# [3] = target: T2, Heat shock factor protein 1 (Mus musculus, UniProt P38532); assay: enhancement of HSF1-driven luciferase signal – cell-based, NIH3T3, luminescence, dose retest, confirmation (AID 435004); type: functional;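 note: stress induced by proteasome inhibitor MG132 added 30 min after compound; luciferase reporter driven by HSF1 response element in NIH3T3 cells; actives raise luminescence as potentiators of the MG132 stress response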
# T2 sequence (P38532 whole entry): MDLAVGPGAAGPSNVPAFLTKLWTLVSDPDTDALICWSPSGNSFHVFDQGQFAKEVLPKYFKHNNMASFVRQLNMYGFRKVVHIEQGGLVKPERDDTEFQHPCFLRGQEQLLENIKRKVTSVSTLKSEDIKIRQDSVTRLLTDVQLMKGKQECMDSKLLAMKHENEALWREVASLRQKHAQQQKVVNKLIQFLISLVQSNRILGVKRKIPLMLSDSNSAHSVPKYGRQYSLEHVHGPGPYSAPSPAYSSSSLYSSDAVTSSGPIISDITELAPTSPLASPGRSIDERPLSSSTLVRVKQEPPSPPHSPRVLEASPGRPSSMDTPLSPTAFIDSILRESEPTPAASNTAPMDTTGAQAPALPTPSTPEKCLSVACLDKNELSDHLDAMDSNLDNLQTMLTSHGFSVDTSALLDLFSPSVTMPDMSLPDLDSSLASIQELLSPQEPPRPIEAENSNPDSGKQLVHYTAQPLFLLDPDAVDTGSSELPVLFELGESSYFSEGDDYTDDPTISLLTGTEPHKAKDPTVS
# [4] = target: Cytochrome P450 2D6 (Homo sapiens, UniProt P10635);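 note: CYP2D6 member of a cytochrome P450 panel assay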
# [5] = loss of viability in HepG2 cells – cell-based, CellTiter-Glo, cherry-picked, cytotoxicity control for Shn3 inhibitor project, dose response (AID 624134); type: functional
# [6] = reduction of Shn3 3'UTR-driven luciferase in osteoblasts – cell-based, Clone20 osteoblasts, firefly luciferase, cherry-picked, dose response (AID 624132); type: functional;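 note: firefly luciferase luminescence from reporter carrying the Shn3 3'UTR in osteoblasts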
# [7] = non-specific 3'UTR reporter inhibition in Clone20-Shn3RL – cell-based, Renilla luciferase, cherry-picked, counter-screen for Shn3 inhibitor project, dose response (AID 624133); type: functional
# [8] = Luminescence Cell-Based Dose Confirmation HTS to Identify Activators of 5'UTR Stem-Loop Driven Alpha-Synuclein mRNA Translation in H4 Neuroglioblastoma Cells. [Related pubchem assays: 1829 (Project Summary), 1814 (Primary HTS)]; type: functional
# [9] = Luminescence Cell-Based Dose Response HTS to Identify Activators of Luciferase Translation or Activity in H4 […] Cells. [Related pubchem assays: 1829 (Project Summary), 1814 (Primary HTS)]; type: functional
# [10] = test system: H4; assay: Luminescence Cell-Based Dose Response HTS to Identify Activators of 5'UTR Stem-Loop Driven Prion Protein mRNA Translation in H4 Neuroglioblastoma Cells. [Related pubchem assays: 1829 (Project Summary), 1814 (Primary HTS)]; type: functional; conditions: Homo sapiens
# [11] = target: T3, Cytochrome P450 1A2 (Homo sapiens, UniProt P05177);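 note: PubChem cytochrome P450 panel assay, CYP1A2 panel member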
# T3 sequence (P05177 whole entry): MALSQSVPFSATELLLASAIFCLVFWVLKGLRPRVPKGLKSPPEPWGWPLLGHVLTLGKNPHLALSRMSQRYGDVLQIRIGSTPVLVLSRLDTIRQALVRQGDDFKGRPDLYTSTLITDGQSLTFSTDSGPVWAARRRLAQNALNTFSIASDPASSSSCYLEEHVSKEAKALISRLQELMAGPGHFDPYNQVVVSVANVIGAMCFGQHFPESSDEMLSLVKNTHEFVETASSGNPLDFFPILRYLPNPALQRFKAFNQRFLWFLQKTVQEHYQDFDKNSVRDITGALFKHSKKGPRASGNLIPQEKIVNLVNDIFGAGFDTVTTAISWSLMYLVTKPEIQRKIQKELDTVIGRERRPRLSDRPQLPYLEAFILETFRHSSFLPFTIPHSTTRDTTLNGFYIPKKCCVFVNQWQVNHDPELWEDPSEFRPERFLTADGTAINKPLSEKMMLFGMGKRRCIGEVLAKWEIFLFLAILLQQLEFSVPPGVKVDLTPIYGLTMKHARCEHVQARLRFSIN
# Chain of Cytochrome P450 2D6 (P10635 whole entry): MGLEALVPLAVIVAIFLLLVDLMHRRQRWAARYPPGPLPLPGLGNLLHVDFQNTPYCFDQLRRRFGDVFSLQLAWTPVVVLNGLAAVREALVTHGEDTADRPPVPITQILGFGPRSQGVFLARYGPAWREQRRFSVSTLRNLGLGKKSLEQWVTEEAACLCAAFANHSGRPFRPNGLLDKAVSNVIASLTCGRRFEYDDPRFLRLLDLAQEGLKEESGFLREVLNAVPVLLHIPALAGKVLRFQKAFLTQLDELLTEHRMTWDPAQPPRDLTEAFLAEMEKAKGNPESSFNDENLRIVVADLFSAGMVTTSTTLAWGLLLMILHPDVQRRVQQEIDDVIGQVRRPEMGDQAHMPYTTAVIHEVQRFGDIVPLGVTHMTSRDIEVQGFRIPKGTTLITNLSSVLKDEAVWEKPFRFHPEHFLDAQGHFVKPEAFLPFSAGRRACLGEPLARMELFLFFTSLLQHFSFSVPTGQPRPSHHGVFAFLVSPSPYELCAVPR
compound,measurement,setting,value
CN(NC(=O)Nc1ccccc1)c1cnn(C)c(=O)c1Cl,EC50,[1],> 53 µM (inactive)
same,IC50,[2],> 47.1 µM (inactive)
COc1cc(N=C(S)NC(C)(C)C)c(OC)cc1Cl,EC50,[3],> 260 µM (inactive)
CN(C)c1ccc(-c2cncnc2Nc2ccccc2)cc1,AC50,[4],20 µM (inconclusive)
CCN(CC)C(=O)CSc1ncnc2c1nnn2-c1ccc(OC)cc1,EC50,[1],> 53 µM (inactive)
same,IC50,[2],> 47.1 µM (inactive)
CCC(=O)NC(C)c1cc(Cl)c2cccnc2c1O (configuration not stated),AC50,[5],9.85 µM (active)
same,AC50,[6],5.19 µM (active)
same,AC50,[7],1.62 µM (active)
CC(=O)N(C)c1ccc(NC(S)=Nc2cccc3ccccc23)cc1,EC50,[8],15.8 µM (active)
same,EC50,[9],29.5 µM (active)
same,EC50,[10],30.7 µM (active)
O=S(=O)(c1cccc2nsnc12)N1CCc2ccccc2C1,EC50,[1],> 53 µM (inactive)
same,IC50,[2],> 47.1 µM (inactive)
Cc1ccc(-c2cc3nc(-c4ccccc4)cc(N)n3n2)cc1,EC50,[8],0.163 µM (active)
same,EC50,[9],0.812 µM (active)
same,EC50,[10],> 120 µM (not active)
Cc1ccc(NC(=O)c2sc(N)nc2-c2ccc([N+](=O)[O-])cc2)c(C)c1,EC50,[3],> 260 µM (inactive)
Cc1ccc(S(=O)(=O)c2c(N)n(-c3ccccc3)c3nc4ccccc4nc23)cc1,EC50,[3],28.6 µM (active)
COc1ccc(C(=O)C(OC(=O)c2ccccc2)c2ccccc2)cc1 (configuration not stated),EC50,[8],10.7 µM (active)
same,EC50,[9],30.5 µM (active)
same,EC50,[10],6.4 µM (active)
CCn1c(=O)n(CC)c2cc(S(=O)(=O)Nc3ccccc3C)c(C)cc21,EC50,[3],> 260 µM (inactive)
FC(F)(F)c1ccccc1-c1cncnc1Nc1ccccc1,AC50,[4],39.8 µM (inconclusive)
same,AC50,[11],25.1 µM (inconclusive)
O=C(C[C@H]1C[C@@H]2c3cc(NS(=O)(=O)c4ccccc4)ccc3O[C@@H]2[C@H](CO)O1)N1CCOCC1,EC50,[1],> 53 µM (inactive)
same,IC50,[2],> 47.1 µM (inactive)
Cc1ccccc1Cn1c(-c2cncs2)nc2ccccc21,EC50,[3],> 260 µM (inactive)
COc1cc2c(cc1O)C[C@@H]1c3c(cc(O)c(OC)c3-2)CCN1C,AC50,[4],3.16 µM (inconclusive)
CC(=O)c1cc(C#N)c(Oc2ccc(Cl)cc2Cl)nc1C,EC50,[1],> 53 µM (inactive)
same,IC50,[2],> 47.1 µM (inactive)
CCCCn1c(C)c(C(=O)OCC)c2c(CN3CCOCC3)c(O)ccc21,EC50,[3],> 260 µM (inactive)
CCN(CC)Cc1c(C)nc2ccc(NC(C)=O)cc2c1O,EC50,[1],> 53 µM (inactive)
same,IC50,[2],> 47.1 µM (inactive)
COc1ccc(NC(=O)COc2ccccc2Cc2ccccc2)cc1S(N)(=O)=O,EC50,[3],> 260 µM (inactive)
COc1ccc(CNc2ncnc3ccc(-c4ccc(C(=O)N(C)C)cc4)cc23)c(OC)c1,AC50,[4],20 µM (inconclusive)
same,AC50,[11],39.8 µM (inconclusive)
